Measured values published in article PMC4931252 (Nature Communications, 2016).

Molecular target: T1, prion protein PrP (PrP^C, SHaPrP) (Mesocricetus auratus, UniProt P04273)
T1 construct: gene PRNP
Format: binding

T1 sequence (P04273 90-231 limits assumed): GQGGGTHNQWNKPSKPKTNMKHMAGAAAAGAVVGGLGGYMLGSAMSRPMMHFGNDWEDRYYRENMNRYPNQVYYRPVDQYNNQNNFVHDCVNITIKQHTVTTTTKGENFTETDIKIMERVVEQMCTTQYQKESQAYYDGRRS

Work on `C[n+]1ccc(-c2c3nc(c(-c4cc[n+](C)cc4)c4ccc([nH]4)c(-c4cc[n+](C)cc4)c4nc(c(-c5cc[n+](C)cc5)c5ccc2[nH]5)C=C4)C=C3)cc1.[Fe+3]` [Fe-TMPyP, iron(III) meso-tetra (N-methyl-4-pyridyl-porphine)] yielded a Kd of 9 ± 3 µM.
